Data published in PubChem BioAssay AID2060907 (Molecular Pharmacology Branch, DTP, NCI, 2025).
Each block holds one molecule with its values, some of them ahead of it.

Test system: 388556-164-R-J1-PDC complex spheroid viability
Test: Anticancer human tumor 388556-164-R-J1-PDC patient-derived colon adenocarcinoma cell line growth inhibition [RAS]
Details: for viability, T/C: stronger effect = lower value
Outline: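 Agents were tested in combination matrices in half-log decrements from a top concentration at or near clinical Cmax (10 microM if undetermined). Targets were multi-cell spheroids of tumour lines plus HUVEC and MSC stromal cells.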

[1] = curve of first compound, second compound 0.00316 µM
[2] = curve of first compound, second compound 0.01 µM
[3] = curve of first compound, second compound 0.0316 µM
[4] = curve of first compound, second compound 0.1 µM
[5] = curve of first compound, second compound 0.316 µM
[6] = curve of first compound, second compound 1 µM
[7] = second compound 0.00316 µM, first compound 0.0316 µM
[8] = second compound 0.00316 µM, first compound 0.1 µM
[9] = second compound 0.00316 µM, first compound 0.316 µM
[10] = second compound 0.00316 µM, first compound 1 µM
[11] = second compound 0.01 µM, first compound 0.0316 µM
[12] = second compound 0.01 µM, first compound 0.1 µM
[13] = second compound 0.01 µM, first compound 0.316 µM
[14] = second compound 0.01 µM, first compound 1 µM
[15] = second compound 0.0316 µM, first compound 0.0316 µM
[16] = second compound 0.0316 µM, first compound 0.1 µM
[17] = second compound 0.0316 µM, first compound 0.316 µM
[18] = second compound 0.0316 µM, first compound 1 µM
[19] = second compound 0.1 µM, first compound 0.0316 µM
[20] = second compound 0.1 µM, first compound 0.1 µM
[21] = second compound 0.1 µM, first compound 0.316 µM
[22] = second compound 0.1 µM, first compound 1 µM
[23] = second compound 0.316 µM, first compound 0.0316 µM
[24] = second compound 0.316 µM, first compound 0.1 µM
[25] = second compound 0.316 µM, first compound 0.316 µM
[26] = second compound 0.316 µM, first compound 1 µM
[27] = second compound 1 µM, first compound 0.0316 µM
[28] = second compound 1 µM, first compound 0.1 µM
[29] = second compound 1 µM, first compound 0.316 µM
[30] = second compound 1 µM, first compound 1 µM
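Further: spheroids exposed to compound for 7 days before readout.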
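Wherever viability, T/C is given: 100% = DMSO vehicle control luminescence.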

IC50 (curve of first compound, second compound 0.000949 µM): > 10 µM | IC50 (curve of first compound, second compound 0.003 µM): > 10 µM | IC50 (curve of first compound, second compound 0.00949 µM): > 10 µM | IC50 (curve of first compound, second compound 0.03 µM): > 10 µM | IC50 (curve of first compound, second compound 0.0949 µM): > 10 µM | IC50 (curve of first compound, second compound 0.3 µM): > 10 µM
SMILES: CC(C)NCC(C(=O)N1CCN(c2ncnc3c2C(C)CC3O)CC1)c1ccc(Cl)cc1 (stereo not drawn) + CCn1c(-c2cccnc2C(C)OC)c2c3cc(ccc31)N1CCOC(CC(NC(=O)C(C(C)C)N(C)C(=O)C3(F)CCN(C(=O)C#CC(C)(C)N(C)C)CC3)C(=O)N3CCCC(N3)C(=O)OCC(C)(C)C2)C1
viability, T/C (second compound 0.000949 µM, first compound 0.0316 µM): 104% | viability, T/C (second compound 0.000949 µM, first compound 0.1 µM): 98% | viability, T/C (second compound 0.000949 µM, first compound 0.316 µM): 99.6% | viability, T/C (second compound 0.000949 µM, first compound 1 µM): 89.8% | viability, T/C (second compound 0.000949 µM, first compound 3.16 µM): 105% | viability, T/C (second compound 0.000949 µM, first compound 10 µM): 85.4% | viability, T/C (second compound 0.003 µM, first compound 0.0316 µM): 105% | viability, T/C (second compound 0.003 µM, first compound 0.1 µM): 104% | viability, T/C (second compound 0.003 µM, first compound 0.316 µM): 102% | viability, T/C (second compound 0.003 µM, first compound 1 µM): 99.1% | viability, T/C (second compound 0.003 µM, first compound 3.16 µM): 102% | viability, T/C (second compound 0.003 µM, first compound 10 µM): 81.8% | viability, T/C (second compound 0.00949 µM, first compound 0.0316 µM): 108% | viability, T/C (second compound 0.00949 µM, first compound 0.1 µM): 102% | viability, T/C (second compound 0.00949 µM, first compound 0.316 µM): 101% | viability, T/C (second compound 0.00949 µM, first compound 1 µM): 90.7% | viability, T/C (second compound 0.00949 µM, first compound 3.16 µM): 107% | viability, T/C (second compound 0.00949 µM, first compound 10 µM): 91.3% | viability, T/C (second compound 0.03 µM, first compound 0.0316 µM): 106% | viability, T/C (second compound 0.03 µM, first compound 0.1 µM): 111% | viability, T/C (second compound 0.03 µM, first compound 0.316 µM): 84.6% | viability, T/C (second compound 0.03 µM, first compound 1 µM): 98.4% | viability, T/C (second compound 0.03 µM, first compound 3.16 µM): 106% | viability, T/C (second compound 0.03 µM, first compound 10 µM): 81.5% | viability, T/C (second compound 0.0949 µM, first compound 0.0316 µM): 84.8% | viability, T/C (second compound 0.0949 µM, first compound 0.1 µM): 101% | viability, T/C (second compound 0.0949 µM, first compound 0.316 µM): 93.8% | viability, T/C (second compound 0.0949 µM, first compound 1 µM): 99.9% | viability, T/C (second compound 0.0949 µM, first compound 3.16 µM): 106% | viability, T/C (second compound 0.0949 µM, first compound 10 µM): 79.2% | viability, T/C (second compound 0.3 µM, first compound 0.0316 µM): 94.5% | viability, T/C (second compound 0.3 µM, first compound 0.1 µM): 102% | viability, T/C (second compound 0.3 µM, first compound 0.316 µM): 86.6% | viability, T/C (second compound 0.3 µM, first compound 1 µM): 87.8% | viability, T/C (second compound 0.3 µM, first compound 3.16 µM): 95.5% | viability, T/C (second compound 0.3 µM, first compound 10 µM): 72.6%

IC50 [1]: > 1 µM | IC50 [2]: > 1 µM | IC50 [3]: > 1 µM | IC50 [4]: > 1 µM | IC50 [5]: > 1 µM | IC50 [6]: > 1 µM
SMILES: CCN1CCN(Cc2ccc(Nc3ncc(F)c(-c4cc(F)c5nc(C)n(C(C)C)c5c4)n3)nc2)CC1 + C=CC(=O)N1CCN(c2nc(OCC3CCCN3C)nc3c(F)c(-c4nc(N)cc(C)c4C(F)(F)F)c(Cl)cc23)C(C)C1
viability, T/C (second compound 0.00316 µM, first compound 0.00316 µM): 111% | viability, T/C (second compound 0.00316 µM, first compound 0.01 µM): 104% | viability, T/C [7]: 93.1% | viability, T/C [8]: 88.8% | viability, T/C [9]: 104% | viability, T/C [10]: 98.3% | viability, T/C (second compound 0.01 µM, first compound 0.00316 µM): 97.5% | viability, T/C (second compound 0.01 µM, first compound 0.01 µM): 101% | viability, T/C [11]: 93% | viability, T/C [12]: 95.6% | viability, T/C [13]: 96.2% | viability, T/C [14]: 89.4% | viability, T/C (second compound 0.0316 µM, first compound 0.00316 µM): 100% | viability, T/C (second compound 0.0316 µM, first compound 0.01 µM): 101% | viability, T/C [15]: 95.4% | viability, T/C [16]: 93% | viability, T/C [17]: 98.3% | viability, T/C [18]: 87.8% | viability, T/C (second compound 0.1 µM, first compound 0.00316 µM): 106% | viability, T/C (second compound 0.1 µM, first compound 0.01 µM): 105% | viability, T/C [19]: 90.3% | viability, T/C [20]: 88.9% | viability, T/C [21]: 91.5% | viability, T/C [22]: 84.5% | viability, T/C (second compound 0.316 µM, first compound 0.00316 µM): 105% | viability, T/C (second compound 0.316 µM, first compound 0.01 µM): 100% | viability, T/C [23]: 98.2% | viability, T/C [24]: 89.7% | viability, T/C [25]: 91.8% | viability, T/C [26]: 84.3% | viability, T/C (second compound 1 µM, first compound 0.00316 µM): 102% | viability, T/C (second compound 1 µM, first compound 0.01 µM): 104% | viability, T/C [27]: 100% | viability, T/C [28]: 93% | viability, T/C [29]: 79.7% | viability, T/C [30]: 94%

IC50 (curve of compound): 90.4 nM [middle of 4 runs]
SMILES: CCc1c2c(nc3ccc(O)cc13)-c1cc3c(c(=O)n1C2)COC(=O)[C@]3(O)CC
viability, T/C (compound 0.000949 µM): 108% [middle of 4 runs] | viability, T/C (compound 0.003 µM): 93.6% [middle of 4 runs] | viability, T/C (compound 0.00949 µM): 84.6% [middle of 4 runs] | viability, T/C (compound 0.03 µM): 68.7% [middle of 4 runs] | viability, T/C (compound 0.0949 µM): 50.5% [middle of 4 runs] | viability, T/C (compound 0.3 µM): 32% [middle of 4 runs]

IC50 [1]: > 10 µM | IC50 [2]: > 10 µM | IC50 [3]: > 10 µM | IC50 [4]: > 10 µM | IC50 [5]: > 10 µM | IC50 [6]: > 10 µM
SMILES: CC1(O)CCCC1n1c(=O)c(C(F)F)cc2cnc(NC3CCN(S(C)(=O)=O)CC3)nc21 (stereo not drawn) + C=CC(=O)N1CCN(c2nc(OCC3CCCN3C)nc3c(F)c(-c4nc(N)cc(C)c4C(F)(F)F)c(Cl)cc23)C(C)C1
viability, T/C [7]: 98.3% | viability, T/C [8]: 103% | viability, T/C [9]: 105% | viability, T/C [10]: 99.8% | viability, T/C (second compound 0.00316 µM, first compound 3.16 µM): 109% | viability, T/C (second compound 0.00316 µM, first compound 10 µM): 73.5% | viability, T/C [11]: 93.7% | viability, T/C [12]: 107% | viability, T/C [13]: 101% | viability, T/C [14]: 98.9% | viability, T/C (second compound 0.01 µM, first compound 3.16 µM): 105% | viability, T/C (second compound 0.01 µM, first compound 10 µM): 77.2% | viability, T/C [15]: 101% | viability, T/C [16]: 104% | viability, T/C [17]: 102% | viability, T/C [18]: 108% | viability, T/C (second compound 0.0316 µM, first compound 3.16 µM): 115% | viability, T/C (second compound 0.0316 µM, first compound 10 µM): 81% | viability, T/C [19]: 103% | viability, T/C [20]: 108% | viability, T/C [21]: 99.5% | viability, T/C [22]: 99.2% | viability, T/C (second compound 0.1 µM, first compound 3.16 µM): 102% | viability, T/C (second compound 0.1 µM, first compound 10 µM): 76% | viability, T/C [23]: 102% | viability, T/C [24]: 91.7% | viability, T/C [25]: 96.9% | viability, T/C [26]: 97.7% | viability, T/C (second compound 0.316 µM, first compound 3.16 µM): 101% | viability, T/C (second compound 0.316 µM, first compound 10 µM): 75.3% | viability, T/C [27]: 98.7% | viability, T/C [28]: 102% | viability, T/C [29]: 100% | viability, T/C [30]: 111% | viability, T/C (second compound 1 µM, first compound 3.16 µM): 104% | viability, T/C (second compound 1 µM, first compound 10 µM): 68.7%
